Data set [1] is described as follows: serum estrogen levels and half life with estradiol transdermal patch in postmenopausal women (Ginsburg et al.). To be noted: female, human, other: transdermal patch, 0.1 mg, after removal of patch, worked out from mean half life, read-out: terminal half life (converted). In kind it is in vivo. The source says: Exogenous estrogen can be used to inhibit osteoclast activity and bone resorption by the “triple whammy” previously disclosed, inhibiting osteoclast activity by binding to osteoblasts and 1) increasing their output of OPG and 2) suppressing their RANKL production and 3) prolonging the lives of osteoblasts while simultaneously promoting osteoclast apoptosis. […] The dose is low enough and for a short enough period of time that it should not materially interfere with any of the menstrual processes. Alternatively, the patch may also be cut in half to obtain a half dose (0.05 ng/ml) cushion factor. Estrogen is available in oral, injectable, and patch forms from numerous suppliers and include Estrace, Cenestin, Enjuvia, Femtrace, Gynodiol, Menest etc. . . .
SERM/Estradiol: If the patient is on birth control, which is basically 3 weeks of estrogen followed by 1 week of sugar pills, the SERM raloxifene could be substituted for the sugar pills. Alternatively, low levels of estrogen could be substituted for one or more of the sugar pills, with the goal of keeping the serum levels around 0.1 ng/ml, without the sharp transition drop, and without the potential for interfering with progression of menstruation. Alternatively, an estrogen patch may be used. […]

Data set [2] relates to serum calcium. To be noted: 7.5 mg/kg, 2 h infusion x3 days; cited from earlier work.
Another data set has as its system patients with PMS. The note with it: double blind study; cited from earlier work.
The test system of another data set is blood calcium levels. To be noted: more potent than human calcitonin; cited from earlier work.
Data set [3] in a line: testosterone levels with Androderm transdermal patch. The note with it: human, in vivo, other: transdermal patch. An excerpt: When androgens such as testosterone bind to osteoblast receptors, the osteoblast is stimulated to form new bone (i.e. move calcium into bone). […] Accordingly, administration of androgens such as testosterone, or administration of endocrine hormones that upregulate indigenous production of androgens (e.g. in males, luteinizing hormone, gonadotropin/luteinizing hormone releasing hormone), can be used to reduce extracellular calcium levels by moving calcium back into bone. Testosterone USP is natural testosterone that has been approved by the United States Pharmacopoeia and is available as a bulk chemical. Testosterone is well-absorbed from transdermal (topical) creams and gels. Dosage forms also include sublingual drops, buccal or sublingual troches or tablet triturates. […] In the form known as Testosterone Cypionate, testosterone can be administered by intramuscular injection every 1-3 weeks. WatsonPharma's Androderm transdermal 2.5 mg or 5 mg testosterone patch provides a more convenient way to administer testosterone, and provides the ability to administer the testosterone over a desired time frame much more precisely (as will be discussed further in representative examples). Androderm patches can ramp up testosterone levels quickly (e.g. 349 ng/dl within 3 hours, 528 ng/dl within 6 hours, when applied to the back) and can be used for up to 24 hours. […]

The test system of data set [4] is serum calcium. To be noted: injections of 4-8 IU/kg (IM or SubQ), most patients; cited from earlier work.
Data set [5] has as its system tryptophan hydroxylase (TPH). The note with it: estrogen treated monkey; cited from earlier work.

As a reminder, the half-life is how long it takes for the measured level to halve. In the case of `C[C@]12CC[C@@H]3c4ccc(O)cc4CC[C@H]3[C@@H]1CC[C@@H]2O` [estradiol], in data set [1], the half-life is approximately 9 h.
Take `CC(O)(P(=O)(O)O)P(=O)(O)O` [etidronate disodium]: the duration of efficacy result in the data set on serum calcium [2] is on record as “more than a week”.
As to `N[C@@H](Cc1cc(I)c(Oc2cc(I)c(O)c(I)c2)c(I)c1)C(=O)O` [levothyroxine], the “benefit over the placebo” value with patients with PMS is listed as “did not show any benefit over the placebo”.
As to `CC(C)C[C@H](NC(=O)[C@H](CCCCN)NC(=O)CNC(=O)[C@H](CC(C)C)NC(=O)[C@@H](NC(=O)[C@@H]1CSSC[C@H](N)C(=O)N[C@@H](CO)C(=O)N[C@@H](CC(N)=O)C(=O)N[C@@H](CC(C)C)C(=O)N[C@@H](CO)C(=O)N[C@@H]([C@@H](C)O)C(=O)N1)C(C)C)C(=O)N[C@@H](CO)C(=O)N[C@@H](CCC(N)=O)C(=O)N[C@@H](CCC(=O)O)C(=O)N[C@@H](CC(C)C)C(=O)N[C@@H](Cc1c[nH]cn1)C(=O)N[C@@H](CCCCN)C(=O)N[C@@H](CC(C)C)C(=O)N[C@@H](CCC(N)=O)C(=O)N[C@H](C(=O)N[C@@H](Cc1ccc(O)cc1)C(=O)N1CCC[C@H]1C(=O)N[C@@H](CCCNC(=N)N)C(=O)N[C@H](C(=O)N[C@@H](CC(N)=O)C(=O)N[C@H](C(=O)NCC(=O)N[C@@H](CO)C(=O)NCC(=O)N[C@H](C(=O)N1CCC[C@H]1C(N)=O)[C@@H](C)O)[C@@H](C)O)[C@@H](C)O)[C@@H](C)O` [salmon calcitonin], in the data set with blood calcium levels, the “potency relative to human calcitonin” value is 40-50 times.
Regarding `C[C@]12CC[C@H]3[C@@H](CCC4=CC(=O)CC[C@@]43C)[C@@H]1CC[C@@H]2O` [testosterone], the “time to return to baseline levels after removal of the patch” value in data set [3] was in the range of 3 to 4 h.
Turning to Calcitonin, the “drop in serum calcium levels” value in the data set with serum calcium [4] was 1 to 2 mg/dL.
Take estrogen: the “increase in tryptophan hydroxylase (TPH)” value in data set [5] is listed as “nine-fold”.

The values are drawn from patent US8197858B2, “Bone microenvironment modulated seizure treatments” (priority 2009, dated 2012).
